Like-named read-outs stand apart in the source and are kept apart here.
Assays:
[1] = target: EcDERA (deoxyribose-5-phosphate aldolase); HSA = its T19S/G171A/V206I mutant (Escherichia coli, UniProt P0A6L0)
[2] = target: T1, CkPTA (phosphotransacetylase) (Clostridium kluyveri, UniProt A5N801); assay: acetyl-CoA formation; assay type: biochemical
T1 sequence (A5N801 1-333): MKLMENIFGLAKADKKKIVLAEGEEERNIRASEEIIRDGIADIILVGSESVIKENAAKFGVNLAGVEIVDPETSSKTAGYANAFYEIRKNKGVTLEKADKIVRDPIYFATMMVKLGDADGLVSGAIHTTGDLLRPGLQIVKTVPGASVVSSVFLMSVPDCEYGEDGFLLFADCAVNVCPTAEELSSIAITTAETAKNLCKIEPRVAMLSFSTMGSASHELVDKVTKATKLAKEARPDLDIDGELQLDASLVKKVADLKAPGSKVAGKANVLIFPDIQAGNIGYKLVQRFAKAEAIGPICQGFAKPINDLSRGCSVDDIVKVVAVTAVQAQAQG

EcDERA (deoxyribose-5-phosphate aldolase); HSA = its T19S/G171A/V206I mutant, sequence (P0A6L0 whole entry T19S/G171A/V206I): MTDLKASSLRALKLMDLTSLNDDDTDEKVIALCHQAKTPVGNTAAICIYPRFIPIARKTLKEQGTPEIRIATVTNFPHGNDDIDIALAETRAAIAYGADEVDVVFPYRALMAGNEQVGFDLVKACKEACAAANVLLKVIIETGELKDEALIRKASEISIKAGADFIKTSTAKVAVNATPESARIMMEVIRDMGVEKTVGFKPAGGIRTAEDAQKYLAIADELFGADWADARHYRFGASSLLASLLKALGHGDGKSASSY

Structure (SMILES)	acetyl-CoA formation [2]	further results
O=CCO [glycolaldehyde]	–	product formation (H6P) ([1]; with erythrose 4-phosphate): deoxyribose-5-phosphate aldolase (EcDERA) showing the highest activity
CC(=O)SCCNC(=O)CCNC(=O)[C@H](O)C(C)(C)COP(=O)(O)OP(=O)(O)OC[C@H]1O[C@@H](n2cnc3c(N)ncnc32)[C@H](O)[C@@H]1OP(=O)(O)O [acetyl-CoA]	CkPTA then converted acetyl phosphate into acetyl-CoA as the output product	–
O=C[C@H](O)[C@H](O)COP(=O)(O)O [erythrose 4-phosphate]	–	product formation (H6P) ([1]; with glycolaldehyde): enzyme for the condensation of glycolaldehyde and E4P to H6P
CC(=O)OP(=O)(O)O [acetyl phosphate]	CkPTA then converted acetyl phosphate into acetyl-CoA as the output product	–
